US20090325917A1, “Pharmaceutical Compositions and Nasal Spray Incorporating Anhydrous Mometasone Furoate” (CIPLA LIMITED, priority 2006, published 2009)

How the values were obtained:
[1] = aqueous solution; converted to a different crystalline form after storage at 35° C.; cited from earlier work
[2] = Stability of the API on boiling/stirring in water, tested by X-ray diffraction; type: physicochemical; conditions: boiling in water (with and without Tween 80), two hours stirring at 70 deg in a water bath, then 2 hours at 70 deg on a magnetic stirrer; residue dried at 25° C. under vacuum
Description: The monohydrate peak is clearly visible in the BX 2029 trace, and is absent in the remaining pattern, indicating the presence of anhydrous form in the formulation. Stability of the mometasone furoate anhydrous API was confirmed by boiling in water (with and without the surfactant Tween 80) for two hours whilst stirring at 70 deg in a water bath, followed by 2 hours at 70 deg on a magnetic stirrer. The solution was cooled to room temperature, filtered and the residue containing the API was dried at 25° C. under vacuum. […]

[3] = Storage stability of the composition, crystalline form assessed by X-ray diffraction; type: physicochemical; conditions: in the aqueous composition
From the text: The stability of the compositions in accordance with the present invention may be defined by standard methods. The anhydrous crystalline form is stable at room temperature. […] The crystalline form may be assessed using X-ray diffraction methods.

[4] = Rotation stability of the composition, crystalline form assessed by X-ray diffraction; type: physicochemical; conditions: in the aqueous composition; rotated for five days at 35° C. and an additional four weeks at room temperature
From the text: The crystalline form may be assessed using X-ray diffraction methods.

In the case of `C[C@@H]1C[C@H]2[C@@H]3CCC4=CC(=O)C=C[C@]4(C)[C@@]3(Cl)[C@@H](O)C[C@]2(C)[C@@]1(OC(=O)c1ccco1)C(=O)CCl` [anhydrous mometasone furoate], the “stability of the crystalline form in aqueous composition” value [1] is listed as “unstable”, the “XRD pattern of the dried sample after treatment in water” value [2] is listed as “concordant with that of mometasone furoate anhydrous” and the “crystalline form of the anhydrous mometasone furoate in the composition” value (“crystalline form … in the composition” below) ([3]; 25° for a period of three months) is listed as “does not change”. For the same compound, the “crystalline form … in the composition” value ([3]; 40° C. for a period of three months) was “does not change” and the “crystalline form … in the composition” value [4] was “does not change”.
